The record followed here is patent US9926261B2, “Bacterial efflux pump inhibitors” (Rutgers, The State University of New Jersey, priority 2015, dated 2018).

The subject of the assay is Escherichia coli W4573. The experiment in a line: Test A. Minimum Inhibitory Concentration (MIC)-based assay for efflux pump inhibition (enhancement of minocycline MIC). The class given is cell-based. The settings on record: ratio of minocycline MIC in absence of test compound to minocycline MIC in presence of test compound, test compound 12.5 μg/mL, CAMH broth, 24 hours at 37° C. As for the experimental part:
Test A. Minimum Inhibitory Concentration (MIC)-Based Assay for Efflux Pump Inhibition:
MIC-based assays were used to evaluate the impact of potential efflux pump inhibiting (EPI) compounds on the MIC of minocycline, an antibiotic known to be a substrate for Gram-negative bacterial efflux pumps. The assays were conducted in accordance with Clinical and Laboratory Standards Institute (CLSI) guidelines for broth microdilution, with the modification that assays were conducted in the presence and absence of the test EPI compounds. When present, the EPI compounds were added to cation-adjusted Mueller-Hinton (CAMH) broth (Becton, Dickinson and Co., Franklin Lakes, N.J.) at a final concentration of 12.5 μg/mL.
Log-phase Gram-negative bacteria were added to 96-well microtiter plates (at 5×10^5 colony forming units (CFU) per mL) containing two-fold serial dilutions of minocycline in CAMH broth either in the absence or presence of the test EPI compounds. In all assays, each serial dilution of minocycline was present in duplicate. The final volume in each well was 0.1 mL, and the microtiter plates were incubated aerobically for 24 hours at 37° C. Bacterial growth was then monitored by measuring the optical density (OD) at 600 nm using a VersaMax® plate reader (Molecular Devices, Inc., Sunnyvale, Calif.), with the MIC being defined as the lowest compound concentration at which growth was ≥90% inhibited compared to antibiotic-free control. The following Gram-negative bacterial strains were included in these assays: • Escherichia coli W4573, ATCC 25922, and ATCC BAA-201 (an extended spectrum β-lactamase (ESBL)-producing strain that expresses the TEM-3 β-lactamase). • Klebsiella pneumoniae ATCC 13883 and ATCC 700603 (an ESBL-producing strain that expresses the SHV-18 β-lactamase). • Pseudomonas aeruginosa ATCC 27853. The efflux pump mutant E. coli strain N43 (acrA1) was used as a positive control.
The enhancement is the ratio of the minocycline MIC in the absence of test compound to the minocycline MIC in the presence of test compound.

Take `Cl.Cl.NCCC[C@H](N)CNC(=O)c1ccccc1C(F)(F)F` [Example 1, (S)-5-(2-(trifluoromethyl)benzamido)pentane-1,4-diaminium chloride]: the Enhancement was determined as 1. Turning to `Cl.Cl.NCCC[C@H](N)CNC(=O)c1cccc(C(F)(F)F)c1` [Example 2, (S)-5-(3-(trifluoromethyl)benzamido)pentane-1,4-diaminium chloride], the Enhancement was 2.

Consider `Cl.Cl.NCCC[C@H](N)CNC(=O)c1ccc(C(F)(F)F)cc1` [Example 3, (S)-5-(4-(trifluoromethyl)benzamido)pentane-1,4-diaminium chloride], for which the Enhancement was determined as 4. On to `Cl.Cl.NCCC[C@H](N)CNC(=O)c1ccccc1-c1ccccc1` [Example 4, (S)-5-([1,1′-biphenyl]-2-carboxamido)pentane-1,4-diaminium chloride], for which the Enhancement is recorded as 2. On to `Cl.Cl.NCCC[C@H](N)CNC(=O)c1cc(C(F)(F)F)ccc1C(F)(F)F` [Example 5, (S)-5-(2,5-bis(trifluoromethyl)benzamido)pentane-1,4-diaminium chloride], for which the Enhancement came to 2. Then `Cl.Cl.NCCC[C@H](N)CNC(=O)c1ccc(C(F)(F)F)c(C(F)(F)F)c1` [Example 6, (S)-5-(3,4-Bis(trifluoromethyl)benzamido)pentane-1,4-diaminium chloride], with 32; and `Cl.Cl.NCCC[C@H](N)CNC(=O)c1cc(C(F)(F)F)cc(C(F)(F)F)c1` [Example 7, (S)-5-(3,5-bis(trifluoromethyl)benzamido)pentane-1,4-diaminium chloride], with 16.

For `Cl.Cl.NCCC[C@@H](N)CNC(=O)c1cc(C(F)(F)F)cc(C(F)(F)F)c1` [Example 8, (R)-5-(3,5-bis(trifluoromethyl)benzamido)pentane-1,4-diaminium chloride], the Enhancement is recorded as 8. Then `Cl.Cl.NCC[C@H](N)CNC(=O)c1cc(C(F)(F)F)cc(C(F)(F)F)c1` [Example 9, (S)-4-(3,5-bis(trifluoromethyl)benzamido)butane-1,3-diaminium chloride], with 16; and `CC(C)(C)c1cc(C(=O)NC[C@@H](N)CCCN)cc(C(C)(C)C)c1.Cl.Cl` [Example 10, (S)-5-(3,5-di-tert-butylbenzamido)pentane-1,4-diaminium chloride], with 64. The figure for `Cl.Cl.NCCC[C@H](N)CNC(=O)c1cc(-c2ccccc2)cc(-c2ccccc2)c1` [Example 11, (S)-5-([1,1′:3′,1″-terphenyl]-5′-carboxamido)pentane-1,4-diaminium chloride] is 128.

For the compound `NC[C@@H](N)CCCNC(=O)c1cc(-c2ccccc2)cc(-c2ccccc2)c1` [Example 12, (S)-5-([1,1′:3′,1″-terphenyl]-5′-carboxamido)pentane-1,2-diaminium chloride], the Enhancement was determined as 2.

Turning to `Cl.Cl.NCCC[C@H](N)CNC(=O)c1cc(-c2ccc(F)cc2)cc(-c2ccc(F)cc2)c1` [Example 13, (S)-5-(4,4″-difluoro-[1,1′:3′,1″-terphenyl]-5′-carboxamido)pentane-1,4-diaminium chloride], the Enhancement is 128.
